Experimental findings from patent publication US10647713B2 (Nimbus Lakshmi, Inc., priority 2016, dated 2020) are described below.

The target of this assay is human TYK2 (JH2domain-pseudokinase) (Homo sapiens (Human), UniProt P29597). As to the kind of experiment: TYK2 JH2 Domain Binding Assay (KINOMEscan, DiscoveRx). The note with it: 11-point dilution, duplicate. Put shortly: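 Kd from duplicate 11-point 3-fold dilutions starting at 30,000 nM, fitted by Hill equation with slope fixed at −1. Compounds (final 0.9% DMSO) displace DNA-tagged HEK293-expressed TYK2 JH2 fusion (<0.1 nM) from ligand-coated beads over 1 h at room temperature; eluted kinase read by qPCR.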
Chain of human TYK2 (JH2domain-pseudokinase) (P29597 556-888): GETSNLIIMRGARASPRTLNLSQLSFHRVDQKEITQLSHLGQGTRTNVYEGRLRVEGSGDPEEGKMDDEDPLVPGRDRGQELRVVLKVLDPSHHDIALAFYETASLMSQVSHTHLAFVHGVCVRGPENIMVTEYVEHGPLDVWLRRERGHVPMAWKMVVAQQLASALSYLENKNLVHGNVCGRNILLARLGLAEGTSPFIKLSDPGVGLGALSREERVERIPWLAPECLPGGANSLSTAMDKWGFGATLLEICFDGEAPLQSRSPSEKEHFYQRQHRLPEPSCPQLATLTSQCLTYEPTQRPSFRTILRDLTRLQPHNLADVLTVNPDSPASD
By Kd is commonly meant the concentration at which binding is half-saturated. High values mean lower affinity, low ones higher affinity. Molecule `Cc1ncc(Nc2cc(Nc3ccc([C@H]4CCCCO4)cc3S(C)(=O)=O)c3nc(C(F)F)[nH]c3n2)nc1C` [I-486, (R)-2-(difluoromethyl)-N5-(5,6-dimethylpyrazin-2-yl)-N7-(2-(methylsulfonyl)-4-(tetrahydro-2H-pyran-2-yl)phenyl)-3H-imidazo[4,5-b]pyridine-5,7-diamine] had an equilibrium dissociation constant (Kd) of 100 to 500 pM. Next, `Cc1ncc(Nc2cc(Nc3ccc([C@@H]4CCCCO4)cc3S(C)(=O)=O)c3nc(C(F)F)[nH]c3n2)nc1C` [I-487, (S)-2-(difluoromethyl)-N5-(5,6-dimethylpyrazin-2-yl)-N7-(2-(methylsulfonyl)-4-(tetrahydro-2H-pyran-2-yl)phenyl)-3H-imidazo[4,5-b]pyridine-5,7-diamine]: 500 to 1000 pM; `Cc1nc2c(Nc3ccc(-c4nc(C)sc4C)cc3S(C)(=O)=O)cc(NC(=O)C3CC3)nc2[nH]1` [I-488, N-(7-((4-(2,5-dimethylthiazol-4-yl)-2-(methylsulfonyl)phenyl)amino)-2-methyl-3H-imidazo[4,5-b]pyridin-5-yl)cyclopropanecarboxamide]: less than 100 pM; `CC(C)c1ccc(Nc2cc(Nc3ccccc3S(C)(=O)=O)c3nc(C(F)F)[nH]c3n2)nc1C#N` [I-489, 6-((2-(difluoromethyl)-7-((2-(methylsulfonyl)phenyl)amino)-3H-imidazo[4,5-b]pyridin-5-yl)amino)-3-isopropylpicolinonitrile]: 100 to 500 pM. To `Cc1nc2c(Nc3ccccc3S(C)(=O)=O)cc(Nc3ccc(C(C)C)c(C#N)n3)nc2[nH]1` [I-490, 3-isopropyl-6-((2-methyl-7-((2-(methylsulfonyl)phenyl)amino)-3H-imidazo[4,5-b]pyridin-5-yl)amino)picolinonitrile] belongs 100 to 500 pM; to `Cc1c(-c2ccc(Nc3cc(Nc4cc5n(n4)CCOC5)nc4[nH]c(C(F)F)nc34)c(S(C)(=O)=O)c2)cnn1C` [I-491, 2-(difluoromethyl)-N5-(6,7-dihydro-4H-pyrazolo[5,1-c][1,4]oxazin-2-yl)-N7-(4-(1,5-dimethyl-1H-pyrazol-4-yl)-2-(methylsulfonyl)phenyl)-3H-imidazo[4,5-b]pyridine-5,7-diamine], less than 100 pM. Next, `Cc1nc2c(Nc3ccc(-c4cnn(C)c4C)cc3S(C)(=O)=O)cc(Nc3cc4n(n3)CCOC4)nc2[nH]1` [I-492, N5-(6,7-dihydro-4H-pyrazolo[5,1-c][1,4]oxazin-2-yl)-N7-(4-(1,5-dimethyl-1H-pyrazol-4-yl)-(methylsulfonyl)phenyl)-2-methyl-3H-imidazo[4,5-b]pyridine-5,7-diamine]: less than 100 pM; `Cc1c(-c2ccc(Nc3cc(Nc4cccc(C(F)(F)F)n4)nc4[nH]c(C(F)F)nc34)c(S(C)(=O)=O)c2)cnn1C` [I-493, 2-(difluoromethyl)-N7-(4-(1,5-dimethyl-1H-pyrazol-4-yl)-2-(methylsulfonyl)phenyl)-N5-(6-(trifluoromethyl)pyridin-2-yl)-3H-imidazo[4,5-b]pyridine-5,7-diamine]: 100 to 500 pM; `Cc1cc(Nc2cc(Nc3ccc([C@H]4CCCCO4)cc3S(C)(=O)=O)c3nc(C(F)F)[nH]c3n2)nc(C)n1` [I-494, (R)-2-(difluoromethyl)-N5-(2,6-dimethylpyrimidin-4-yl)-N7-(2-(methylsulfonyl)-4-(tetrahydro-2H-pyran-2-yl)phenyl)-3H-imidazo[4,5-b]pyridine-5,7-diamine]: less than 100 pM. On to `Cc1cnc(-c2ccc(Nc3cc(Nc4cc5n(n4)CCOC5)nc4[nH]c(C(F)F)nc34)c(S(C)(=O)=O)c2)s1` [I-495, 2-(difluoromethyl)-N5-(6,7-dihydro-4H-pyrazolo[5,1-c][1,4]oxazin-2-yl)-N7-(2-(methylsulfonyl)-4-(5-methylthiazol-2-yl)phenyl)-3H-imidazo[4,5-b]pyridine-5,7-diamine], for which the Kd lay in the range of 100 to 500 pM. To `Cc1nc2c(Nc3ccc(-c4ncc(C)s4)cc3S(C)(=O)=O)cc(Nc3cc4n(n3)CCOC4)nc2[nH]1` [I-496, N5-(6,7-dihydro-4H-pyrazolo[5,1-c][1,4]oxazin-2-yl)-2-methyl-N7-(2-(methylsulfonyl)-4-(5-methylthiazol-2-yl)phenyl)-3H-imidazo[4,5-b]pyridine-5,7-diamine] belongs 100 to 500 pM. Regarding `CC1(C)CC[C@H](c2ccc(Nc3cc(NC(=O)C4CC4)nc4[nH]c(C(F)F)nc34)c(S(C)(=O)=O)c2)O1` [I-498, (R)—N-(2-(difluoromethyl)-7-((4-(5,5-dimethyltetrahydrofuran-2-yl)-2-(methylsulfonyl)phenyl)amino)-3H-imidazo[4,5-b]pyridin-5-yl)cyclopropanecarboxamide], the Kd was 100 to 500 pM.

For `CC1(C)CC[C@@H](c2ccc(Nc3cc(NC(=O)C4CC4)nc4[nH]c(C(F)F)nc34)c(S(C)(=O)=O)c2)O1` [I-499, (S)—N-(2-(difluoromethyl)-7-((4-(5,5-dimethyltetrahydrofuran-2-yl)-2-(methylsulfonyl)phenyl)amino)-3H-imidazo[4,5-b]pyridin-5-yl)cyclopropanecarboxamide], the dissociation constant Kd was in the range of 1000 to 10000 pM. Take `COCc1nc(-c2ccc(Nc3cc(NC(=O)C4CC4)nc4[nH]c(C(F)F)nc34)c(S(C)(=O)=O)c2)sc1C` [I-500, N-(2-(difluoromethyl)-7-((4-(4-(methoxymethyl)-5-methylthiazol-2-yl)-2-(methylsulfonyl)phenyl)amino)-3H-imidazo[4,5-b]pyridin-5-yl)cyclopropanecarboxamide]: the Kd lay within 100 to 500 pM. To `COCCCn1ccc(-c2ccc(Nc3cc(NC(=O)C4CC4)nc4[nH]c(C(F)F)nc34)c(S(C)(=O)=O)c2)n1` [I-501, N-(2-(difluoromethyl)-7-((4-(1-(3-methoxypropyl)-1H-pyrazol-3-yl)-2-(methylsulfonyl)phenyl)amino)-3H-imidazo[4,5-b]pyridin-5-yl)cyclopropanecarboxamide] belongs 100 to 500 pM; to `COCCCn1ccc(-c2ccc(Nc3cc(NC(=O)C4CC4)nc4[nH]c(C)nc34)c(S(C)(=O)=O)c2)n1` [I-502, N-(7-((4-(1-(3-methoxypropyl)-1H-pyrazol-3-yl)-2-(methylsulfonyl)phenyl)amino)-2-methyl-3H-imidazo[4,5-b]pyridin-5-yl)cyclopropanecarboxamide], 100 to 500 pM; to `Cc1nc2c(Nc3ccc(-c4ncc(C)s4)cc3S(C)(=O)=O)cc(Nc3cccc(C#N)n3)nc2[nH]1` [I-503, 6-((2-methyl-7-((2-(methylsulfonyl)-4-(5-methylthiazol-2-yl)phenyl)amino)-3H-imidazo[4,5-b]pyridin-5-yl)amino)picolinonitrile], 100 to 500 pM. To `Cc1csc(-c2ccc(Nc3cc(Nc4cccc(C#N)n4)nc4[nH]c(C)nc34)c(S(C)(=O)=O)c2)n1` [I-504, 6-((2-methyl-7-((2-(methylsulfonyl)-4-(4-methylthiazol-2-yl)phenyl)amino)-3H-imidazo[4,5-b]pyridin-5-yl)amino)picolinonitrile] belongs 100 to 500 pM; to `Cc1cc(Nc2cc(Nc3ccc([C@@H]4CCCCO4)cc3S(C)(=O)=O)c3nc(C(F)F)[nH]c3n2)nc(C)n1` [I-505, (S)-2-(difluoromethyl)-N5-(2,6-dimethylpyrimidin-4-yl)-N7-(2-(methylsulfonyl)-4-(tetrahydro-2H-pyran-2-yl)phenyl)-3H-imidazo[4,5-b]pyridine-5,7-diamine], 100 to 500 pM; to `Cc1nc2c(Nc3ccc(-c4nc(C)c(C)s4)cc3S(C)(=O)=O)cc(Nc3cccc(C#N)n3)nc2[nH]1` [I-506, 6-((7-((4-(4,5-dimethylthiazol-2-yl)-2-(methylsulfonyl)phenyl)amino)-2-methyl-3H-imidazo[4,5-b]pyridin-5-yl)amino)picolinonitrile], 500 to 1000 pM. `Cc1nc(-c2ccc(Nc3cc(Nc4cccc(C#N)n4)nc4[nH]c(C(F)F)nc34)c(S(C)(=O)=O)c2)sc1C` [I-507, 6-((2-(difluoromethyl)-7-((4-(4,5-dimethylthiazol-2-yl)-2-(methylsulfonyl)phenyl)amino)-3H-imidazo[4,5-b]pyridin-5-yl)amino)picolinonitrile] showed a Kd of 1000 to 10000 pM. Next, `Cc1nc2c(Nc3ccc(-c4cc(C)n(C)n4)cc3S(C)(=O)=O)cc(Nc3cnc(C)c(C)n3)nc2[nH]1` [I-508, N7-(4-(1,5-dimethyl-1H-pyrazol-3-yl)-2-(methylsulfonyl)phenyl)-N5-(5,6-dimethylpyrazin-2-yl)-2-methyl-3H-imidazo[4,5-b]pyridine-5,7-diamine]: less than 100 pM. `Cc1cc(Nc2cc(Nc3ccc(-c4cc(C)n(C)n4)cc3S(C)(=O)=O)c3nc(C)[nH]c3n2)nc(C)n1` [I-509, N7-(4-(1,5-dimethyl-1H-pyrazol-3-yl)-2-(methylsulfonyl)phenyl)-N5-(2,6-dimethylpyrimidin-4-yl)-2-methyl-3H-imidazo[4,5-b]pyridine-5,7-diamine] registered a Kd of less than 100 pM. To `Cc1cc(Nc2cc(Nc3ccc(-c4nn(C)cc4C)cc3S(C)(=O)=O)c3nc(C(F)F)[nH]c3n2)nc(C)n1` [I-510, 2-(difluoromethyl)-N7-(4-(1,4-dimethyl-1H-pyrazol-3-yl)-2-(methylsulfonyl)phenyl)-N5-(2,6-dimethylpyrimidin-4-yl)-3H-imidazo[4,5-b]pyridine-5,7-diamine] belongs less than 100 pM; to `Cc1cc(Nc2cc(Nc3ccc(-c4nn(C)cc4C)cc3S(C)(=O)=O)c3nc(C)[nH]c3n2)nc(C)n1` [I-511, N7-(4-(1,4-dimethyl-1H-pyrazol-3-yl)-2-(methylsulfonyl)phenyl)-N5-(2,6-dimethylpyrimidin-4-yl)-2-methyl-3H-imidazo[4,5-b]pyridine-5,7-diamine], less than 100 pM; to `COCc1nc(-c2ccc(Nc3cc(NC(=O)C4CC4)nc4[nH]c(C)nc34)c(S(C)(=O)=O)c2)sc1C` [I-512, N-(7-((4-(4-(methoxymethyl)-5-methylthiazol-2-yl)-2-(methylsulfonyl)phenyl)amino)-2-methyl-3H-imidazo[4,5-b]pyridin-5-yl)cyclopropanecarboxamide], less than 100 pM.
